In ChEMBL document CHEMBL1687697 (ACS Med Chem Lett, 2010):
Activity calls are given as the source filed them. No cut-off for these calls is given here.

Assays:
DU-145 [1] = assay: Cell cycle arrest in human DU145 cells assessed as accumulation in S phase at 0.5 uM after 24 hrs by FACS flow cytometry; format: functional
DU-145 [2] = assay: Cell cycle arrest in human DU145 cells assessed as accumulation in G2/M phase at 0.5 uM after 24 hrs by FACS flow cytometry; format: functional
DU-145 [3] = assay: Cell cycle arrest in human DU145 cells assessed as accumulation in G0/G1 phase at 1 uM after 24 hrs by FACS flow cytometry; format: functional
DU-145 [4] = assay: Cell cycle arrest in human DU145 cells assessed as accumulation in S phase at 1 uM after 24 hrs by FACS flow cytometry; format: functional
DU-145 [5] = assay: Cell cycle arrest in human DU145 cells assessed as accumulation in G2/M phase at 1 uM after 24 hrs by FACS flow cytometry; format: functional
DU-145 [6] = assay: Induction of apoptosis in human DU145 cells assessed as viable cells at 1 uM after 72 hrs by AnnexinV-propidium iodide based FACS flow cytometry; format: functional; settings: DU-145, 72 h, read-out: Activity
DU-145 [7] = assay: Induction of apoptosis in human DU145 cells assessed as early apoptotic cells at 1 uM after 72 hrs by AnnexinV-propidium iodide based FACS flow cytometry; format: functional
DU-145 [8] = assay: Induction of apoptosis in human DU145 cells assessed as late apoptotic cells at 1 uM after 72 hrs by AnnexinV-propidium iodide based FACS flow cytometry; format: functional
DU-145 [9] = assay: Induction of apoptosis in human DU145 cells assessed as necrotic cells at 1 uM after 72 hrs by AnnexinV-propidium iodide based FACS flow cytometry; format: functional
DU-145 [10] = assay: Induction of apoptosis in human DU145 cells assessed as viable cells at 5 uM after 72 hrs by AnnexinV-propidium iodide based FACS flow cytometry; format: functional; settings: DU-145, 72 h, read-out: Activity
DU-145 [11] = assay: Induction of apoptosis in human DU145 cells assessed as early apoptotic cells at 5 uM after 72 hrs by AnnexinV-propidium iodide based FACS flow cytometry; format: functional
DU-145 [12] = assay: Induction of apoptosis in human DU145 cells assessed as late apoptotic cells at 5 uM after 72 hrs by AnnexinV-propidium iodide based FACS flow cytometry; format: functional
DU-145 [13] = assay: Induction of apoptosis in human DU145 cells assessed as necrotic cells at 5 uM after 72 hrs by AnnexinV-propidium iodide based FACS flow cytometry; format: functional
DU-145 [14] = assay: Induction of apoptosis in human DU145 cells assessed as viable cells at 10 uM after 72 hrs by AnnexinV-propidium iodide based FACS flow cytometry; format: functional; settings: DU-145, 72 h, read-out: Activity
DU-145 [15] = assay: Induction of apoptosis in human DU145 cells assessed as early apoptotic cells at 10 uM after 72 hrs by AnnexinV-propidium iodide based FACS flow cytometry; format: functional
DU-145 [16] = assay: Induction of apoptosis in human DU145 cells assessed as late apoptotic cells at 10 uM after 72 hrs by AnnexinV-propidium iodide based FACS flow cytometry; format: functional
DU-145 [17] = assay: Induction of apoptosis in human DU145 cells assessed as necrotic cells at 10 uM after 72 hrs by AnnexinV-propidium iodide based FACS flow cytometry; format: functional
[18] = molecular target: Tyrosine-protein kinase ABL1 (Homo sapiens, UniProt P00519); assay: Inhibition of Abl1 after 60 mins by radiometric assay
[19] = molecular target: RAC-alpha serine/threonine-protein kinase (Homo sapiens, UniProt P31749); assay: Inhibition of Akt1 after 60 mins by radiometric assay
Aurora kinase A = Aurora kinase A (Homo sapiens, UniProt O14965); assay: Inhibition of Aurora-A after 60 mins by radiometric assay
[20] = molecular target: Serine/threonine-protein kinase B-raf (Homo sapiens, UniProt P15056); assay: Inhibition of B-Raf after 60 mins by radiometric assay
[21] = molecular target: Serine/threonine-protein kinase B-raf (Homo sapiens, UniProt P15056, V600E); assay: Inhibition of B-Raf V600E mutant after 60 mins by radiometric assay
[22] = molecular target: Mitogen-activated protein kinase 1 (Homo sapiens, UniProt P28482); assay: Inhibition of Erk2 after 60 mins by radiometric assay
[23] = molecular target: Fibroblast growth factor receptor 1 (Homo sapiens, UniProt P11362); assay: Inhibition of FGFR-1 after 60 mins by radiometric assay
[24] = molecular target: Glycogen synthase kinase-3 beta (Homo sapiens, UniProt P49841); assay: Inhibition of GSK3-beta after 60 mins by radiometric assay
[25] = molecular target: Receptor-type tyrosine-protein kinase FLT3 (Homo sapiens, UniProt P36888); assay: Inhibition of Flt3 after 60 mins by radiometric assay
[26] = molecular target: Mitogen-activated protein kinase 8 (Homo sapiens, UniProt P45983); assay: Inhibition of JNK1 after 60 mins by radiometric assay
[27] = molecular target: Mast/stem cell growth factor receptor Kit (Homo sapiens, UniProt P10721); assay: Inhibition of KIT after 60 mins by radiometric assay
[28] = molecular target: Tyrosine-protein kinase Lyn (Homo sapiens, UniProt P07948); assay: Inhibition of LYN after 60 mins by radiometric assay
[29] = Inhibition of MEK after 60 mins by radiometric assay
[30] = molecular target: 3-phosphoinositide-dependent protein kinase 1 (Homo sapiens, UniProt O15530); assay: Inhibition of PDK1 after 60 mins by radiometric assay
Angiopoietin-1 receptor = Angiopoietin-1 receptor (Homo sapiens, UniProt Q02763); assay: Inhibition of TIE2 after 60 mins by radiometric assay
[31] = molecular target: Protein kinase C alpha type (Homo sapiens, UniProt P17252); assay: Inhibition of PKC-alpha after 60 mins by radiometric assay
[32] = Inhibition of Raf Y340D/Y341D mutant after 60 mins by radiometric assay
[33] = molecular target: Vascular endothelial growth factor receptor 2 (Homo sapiens, UniProt P35968); assay: Inhibition of VEGFR2 after 60 mins by radiometric assay
DU-145 [34] = assay: Decrease in STAT3 protein level in human DU145 cells after 24 hrs by Western blot analysis; format: functional, cell-based
[35] = molecular target: Signal transducer and activator of transcription 3 (Homo sapiens) (UniProt P40763); assay: Inhibition of STAT3 phosphorylation at Tyr705 in human DU145 cells at 2 uM within 2 hrs by Western blot analysis; format: cell-based; settings: DU-145

Sequence of Receptor-type tyrosine-protein kinase FLT3 (P36888 whole entry): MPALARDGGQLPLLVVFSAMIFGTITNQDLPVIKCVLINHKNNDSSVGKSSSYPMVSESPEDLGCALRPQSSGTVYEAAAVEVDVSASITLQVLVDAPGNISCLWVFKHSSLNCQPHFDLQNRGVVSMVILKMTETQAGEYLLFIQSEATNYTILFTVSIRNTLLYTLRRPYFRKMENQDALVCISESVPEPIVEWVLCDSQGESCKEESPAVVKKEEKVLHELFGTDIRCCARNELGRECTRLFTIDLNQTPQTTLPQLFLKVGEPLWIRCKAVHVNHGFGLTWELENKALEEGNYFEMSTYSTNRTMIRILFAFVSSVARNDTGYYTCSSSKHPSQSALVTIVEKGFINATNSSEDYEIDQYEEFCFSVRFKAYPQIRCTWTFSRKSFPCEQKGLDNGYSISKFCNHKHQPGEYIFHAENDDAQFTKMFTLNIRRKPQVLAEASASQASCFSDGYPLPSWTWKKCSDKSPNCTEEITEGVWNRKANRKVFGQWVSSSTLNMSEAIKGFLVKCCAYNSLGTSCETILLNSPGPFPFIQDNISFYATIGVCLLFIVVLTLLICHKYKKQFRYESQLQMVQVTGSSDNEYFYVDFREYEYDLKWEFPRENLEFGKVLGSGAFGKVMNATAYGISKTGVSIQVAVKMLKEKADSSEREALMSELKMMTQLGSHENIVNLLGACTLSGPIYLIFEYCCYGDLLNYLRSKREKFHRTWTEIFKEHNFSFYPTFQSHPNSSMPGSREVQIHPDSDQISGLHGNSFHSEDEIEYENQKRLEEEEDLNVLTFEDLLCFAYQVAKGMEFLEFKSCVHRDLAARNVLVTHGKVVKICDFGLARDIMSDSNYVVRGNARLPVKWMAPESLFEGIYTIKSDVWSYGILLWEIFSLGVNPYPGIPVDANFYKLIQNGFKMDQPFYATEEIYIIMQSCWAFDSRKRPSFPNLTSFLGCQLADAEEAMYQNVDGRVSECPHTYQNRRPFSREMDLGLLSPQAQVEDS
Sequence of Mitogen-activated protein kinase 1 (P28482 whole entry): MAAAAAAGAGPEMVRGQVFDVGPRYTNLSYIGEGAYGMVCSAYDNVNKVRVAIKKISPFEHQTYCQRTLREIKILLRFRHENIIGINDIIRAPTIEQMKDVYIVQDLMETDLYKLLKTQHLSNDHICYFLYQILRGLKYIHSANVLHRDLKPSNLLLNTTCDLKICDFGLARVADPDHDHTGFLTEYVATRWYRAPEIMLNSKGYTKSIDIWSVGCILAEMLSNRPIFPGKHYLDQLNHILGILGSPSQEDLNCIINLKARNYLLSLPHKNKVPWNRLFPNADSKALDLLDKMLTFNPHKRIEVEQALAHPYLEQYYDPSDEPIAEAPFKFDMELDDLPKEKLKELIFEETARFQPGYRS
Sequence of Serine/threonine-protein kinase B-raf (Homo sapiens, UniProt P15056, V600E) (P15056 2-766 V600E limits assumed): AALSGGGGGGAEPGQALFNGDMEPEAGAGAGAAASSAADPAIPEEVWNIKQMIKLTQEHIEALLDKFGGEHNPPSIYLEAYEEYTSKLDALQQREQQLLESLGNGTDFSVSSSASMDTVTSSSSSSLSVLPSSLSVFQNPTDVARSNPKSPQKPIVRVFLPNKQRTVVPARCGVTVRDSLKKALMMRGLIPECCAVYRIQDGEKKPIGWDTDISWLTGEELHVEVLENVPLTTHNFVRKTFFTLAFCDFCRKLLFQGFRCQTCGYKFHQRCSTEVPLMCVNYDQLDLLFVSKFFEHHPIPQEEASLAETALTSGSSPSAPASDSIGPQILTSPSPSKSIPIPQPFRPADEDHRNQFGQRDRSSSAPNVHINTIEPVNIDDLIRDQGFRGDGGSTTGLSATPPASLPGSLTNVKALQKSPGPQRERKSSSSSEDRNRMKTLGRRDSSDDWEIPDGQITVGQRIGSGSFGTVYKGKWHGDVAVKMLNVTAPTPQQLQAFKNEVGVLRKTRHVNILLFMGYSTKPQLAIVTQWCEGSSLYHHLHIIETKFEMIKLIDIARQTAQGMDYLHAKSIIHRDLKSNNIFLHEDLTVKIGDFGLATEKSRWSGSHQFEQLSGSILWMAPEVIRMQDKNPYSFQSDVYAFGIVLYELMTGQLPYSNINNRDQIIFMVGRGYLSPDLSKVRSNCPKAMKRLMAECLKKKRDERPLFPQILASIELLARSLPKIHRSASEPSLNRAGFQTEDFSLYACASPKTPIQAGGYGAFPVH
Sequence of Vascular endothelial growth factor receptor 2 (P35968 whole entry): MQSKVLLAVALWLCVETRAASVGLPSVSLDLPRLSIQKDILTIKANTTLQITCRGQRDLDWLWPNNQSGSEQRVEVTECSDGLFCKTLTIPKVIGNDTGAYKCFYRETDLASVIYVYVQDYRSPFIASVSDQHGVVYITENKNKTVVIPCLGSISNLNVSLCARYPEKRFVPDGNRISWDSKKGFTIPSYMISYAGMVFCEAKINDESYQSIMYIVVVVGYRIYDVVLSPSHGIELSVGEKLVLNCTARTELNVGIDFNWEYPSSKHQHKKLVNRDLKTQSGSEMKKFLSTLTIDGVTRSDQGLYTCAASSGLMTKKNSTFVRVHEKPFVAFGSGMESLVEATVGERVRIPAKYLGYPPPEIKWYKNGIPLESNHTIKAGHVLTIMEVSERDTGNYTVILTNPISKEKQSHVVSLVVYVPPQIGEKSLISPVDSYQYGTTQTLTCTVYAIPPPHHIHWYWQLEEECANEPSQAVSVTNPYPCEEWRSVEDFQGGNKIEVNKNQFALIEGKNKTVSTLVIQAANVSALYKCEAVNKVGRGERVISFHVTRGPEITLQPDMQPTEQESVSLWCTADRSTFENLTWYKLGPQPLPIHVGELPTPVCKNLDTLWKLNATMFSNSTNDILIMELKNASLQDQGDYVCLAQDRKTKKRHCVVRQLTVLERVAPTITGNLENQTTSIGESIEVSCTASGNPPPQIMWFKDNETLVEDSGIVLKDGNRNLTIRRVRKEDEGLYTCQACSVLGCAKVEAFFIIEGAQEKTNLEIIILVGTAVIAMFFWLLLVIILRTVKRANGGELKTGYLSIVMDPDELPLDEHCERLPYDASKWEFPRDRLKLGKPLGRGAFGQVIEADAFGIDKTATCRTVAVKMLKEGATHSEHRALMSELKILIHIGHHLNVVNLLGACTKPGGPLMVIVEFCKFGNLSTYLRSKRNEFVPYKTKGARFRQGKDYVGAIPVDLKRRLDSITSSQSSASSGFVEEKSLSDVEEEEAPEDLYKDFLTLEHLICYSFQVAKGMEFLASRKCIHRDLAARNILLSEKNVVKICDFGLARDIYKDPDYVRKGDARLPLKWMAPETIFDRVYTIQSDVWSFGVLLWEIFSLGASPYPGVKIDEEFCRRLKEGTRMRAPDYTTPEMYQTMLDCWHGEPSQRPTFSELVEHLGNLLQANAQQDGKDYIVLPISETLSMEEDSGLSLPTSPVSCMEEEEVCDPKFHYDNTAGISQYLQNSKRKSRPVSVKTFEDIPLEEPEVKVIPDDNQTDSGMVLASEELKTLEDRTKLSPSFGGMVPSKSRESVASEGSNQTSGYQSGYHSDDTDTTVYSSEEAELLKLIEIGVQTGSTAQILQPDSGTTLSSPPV
Sequence of Glycogen synthase kinase-3 beta (P49841 whole entry): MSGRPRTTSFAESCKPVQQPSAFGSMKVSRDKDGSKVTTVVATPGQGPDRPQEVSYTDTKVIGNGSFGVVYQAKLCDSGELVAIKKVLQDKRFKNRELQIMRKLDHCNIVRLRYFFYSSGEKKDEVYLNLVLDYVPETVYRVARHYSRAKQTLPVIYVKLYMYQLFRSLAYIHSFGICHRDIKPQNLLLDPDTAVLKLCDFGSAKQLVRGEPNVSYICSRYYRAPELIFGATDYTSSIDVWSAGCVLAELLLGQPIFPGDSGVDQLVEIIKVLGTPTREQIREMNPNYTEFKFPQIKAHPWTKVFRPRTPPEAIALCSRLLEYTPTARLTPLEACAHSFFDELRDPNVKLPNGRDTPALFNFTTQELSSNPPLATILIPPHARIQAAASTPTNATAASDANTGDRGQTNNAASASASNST
Sequence of RAC-alpha serine/threonine-protein kinase (P31749 whole entry): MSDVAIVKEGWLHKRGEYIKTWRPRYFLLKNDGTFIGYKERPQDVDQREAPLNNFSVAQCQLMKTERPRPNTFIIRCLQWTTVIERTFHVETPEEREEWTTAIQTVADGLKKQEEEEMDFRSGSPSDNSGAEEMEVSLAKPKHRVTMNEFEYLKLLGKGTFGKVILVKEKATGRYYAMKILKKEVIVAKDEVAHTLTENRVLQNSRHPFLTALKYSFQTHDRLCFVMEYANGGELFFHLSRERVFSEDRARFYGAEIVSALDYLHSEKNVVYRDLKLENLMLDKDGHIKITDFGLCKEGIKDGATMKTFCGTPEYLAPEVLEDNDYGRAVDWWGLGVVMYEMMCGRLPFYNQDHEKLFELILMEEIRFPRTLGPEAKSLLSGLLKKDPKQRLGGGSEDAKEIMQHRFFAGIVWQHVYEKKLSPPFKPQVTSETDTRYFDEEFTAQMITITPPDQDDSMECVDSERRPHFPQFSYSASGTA
Sequence of Aurora kinase A (O14965 whole entry): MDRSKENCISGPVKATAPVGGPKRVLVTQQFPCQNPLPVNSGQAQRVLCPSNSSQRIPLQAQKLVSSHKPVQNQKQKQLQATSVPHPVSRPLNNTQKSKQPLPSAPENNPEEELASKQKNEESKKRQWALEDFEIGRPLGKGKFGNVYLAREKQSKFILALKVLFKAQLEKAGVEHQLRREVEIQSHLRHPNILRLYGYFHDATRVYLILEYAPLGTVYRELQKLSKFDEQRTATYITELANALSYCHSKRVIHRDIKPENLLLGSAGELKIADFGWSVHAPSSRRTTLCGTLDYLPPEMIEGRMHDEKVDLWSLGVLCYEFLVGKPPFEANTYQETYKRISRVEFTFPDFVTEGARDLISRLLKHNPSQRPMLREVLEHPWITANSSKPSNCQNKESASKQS

Q: What does the source list for `O=C(Nc1ccc([N+](=O)[O-])cc1Cl)c1cc(Cl)ccc1O` [NICLOSAMIDE]?
A: Activity (DU-145 [1]): 32.84%; Activity (DU-145 [2]): 9.76%; Activity (DU-145 [3]): 75.35%; Activity (DU-145 [4]): 16.82%; Activity (DU-145 [5]): 7.83%; viability at 1 µM (DU-145 [6]): 83.9%; Activity (DU-145 [7]): 4.84%; Activity (DU-145 [8]): 8.16%; Activity (DU-145 [9]): 2.63%; viability at 5 µM (DU-145 [10]): 61.9%; Activity (DU-145 [11]): 10.44%; Activity (DU-145 [12]): 25.41%; Activity (DU-145 [13]): 2.27%; viability at 10 µM (DU-145 [14]): 43.4%; Activity (DU-145 [15]): 15.42%; Activity (DU-145 [16]): 38.72%; Activity (DU-145 [17]): 2.43%; IC50 [18]: > 100 µM; IC50 [19]: 59.4 µM; IC50 (Aurora kinase A): 54.1 µM; IC50 [20]: > 100 µM; IC50 [21]: > 100 µM; IC50 [22]: > 100 µM; IC50 [23]: 13.1 µM; IC50 [24]: 77.5 µM; IC50 [25]: > 100 µM; IC50 [26]: > 100 µM; IC50 [27]: 27.8 µM; IC50 [28]: 23.8 µM; IC50 [29]: > 100 µM; IC50 [30]: 83.9 µM; IC50 (Angiopoietin-1 receptor): 67.8 µM; IC50 [31]: > 100 µM; IC50 [32]: > 100 µM; IC50 [33]: 23.1 µM; Activity (DU-145 [34]): inactive; inhibition [35]: Active
